Measurements reported in the NIST ThermoML archive (doi:10.1016/j.jct.2014.07.003).

Experiment: mn = molality of the nth substance listed, in mol/kg
Conditions: 99 kPa, Liquid, Alternating current cell with electrodes

CCCCCCCCCCCC[N+](C)(C)C.[Br-] [dodecyltrimethylammonium bromide] + O
electrical conductivity [S/m]
Conditions | 288.15 K | 293.15 K | 298.15 K | 303.15 K | 308.15 K | 313.15 K | 318.15 K
m1 = 0.0015 | 0.0137 | 0.014 | 0.0143 | 0.0144 | 0.0153 | 0.0169 | 0.018
m1 = 0.003 | 0.0265 | 0.027 | 0.0273 | 0.0278 | 0.0286 | 0.032 | 0.034
m1 = 0.0045 | 0.039 | 0.0397 | 0.0412 | 0.0413 | 0.042 | 0.0469 | 0.049
m1 = 0.0059 | 0.05 | 0.052 | 0.053 | 0.0545 | 0.0547 | 0.0605 | 0.0645
m1 = 0.0073 | 0.061 | 0.0635 | 0.0659 | 0.067 | 0.0675 | 0.0749 | 0.0771
m1 = 0.0087 | 0.0725 | 0.0748 | 0.0769 | 0.079 | 0.0795 | 0.088 | 0.0905
m1 = 0.0101 | 0.0837 | 0.086 | 0.089 | 0.0895 | 0.0903 | 0.101 | 0.103
m1 = 0.0116 | 0.095 | 0.0975 | 0.1 | 0.101 | 0.102 | 0.114 | 0.116
m1 = 0.013 | 0.106 | 0.108 | 0.11 | 0.112 | 0.113 | 0.126 | 0.128
m1 = 0.0144 | 0.115 | 0.118 | 0.12 | 0.122 | 0.123 | 0.135 | 0.138
m1 = 0.0157 | 0.124 | 0.126 | 0.128 | 0.129 | 0.131 | 0.142 | 0.145
m1 = 0.017 | 0.129 | 0.131 | 0.132 | 0.134 | 0.136 | 0.146 | 0.15
m1 = 0.0184 | 0.132 | 0.133 | 0.134 | 0.137 | 0.14 | 0.15 | 0.154
m1 = 0.0197 | 0.135 | 0.136 | 0.136 | 0.14 | 0.142 | 0.154 | 0.158
m1 = 0.021 | 0.137 | 0.138 | 0.139 | 0.143 | 0.145 | 0.157 | 0.161
m1 = 0.0223 | 0.139 | 0.14 | 0.142 | 0.146 | 0.148 | 0.159 | 0.163
m1 = 0.0236 | 0.141 | 0.142 | 0.143 | 0.149 | 0.152 | 0.162 | 0.167
m1 = 0.0249 | 0.143 | 0.144 | 0.146 | 0.151 | 0.154 | 0.164 | 0.17
m1 = 0.0274 | 0.146 | 0.149 | 0.15 | 0.155 | 0.158 | 0.168 | 0.174
m1 = 0.0286 | 0.148 | 0.151 | 0.153 | 0.157 | 0.16 | 0.17 | 0.177
m1 = 0.0298 | 0.15 | 0.154 | 0.156 | 0.159 | 0.162 | 0.172 | 0.179
